The target in assay [1] is GST-tagged Francisella RibD (Francisella tularensis, UniProt A0Q460). As to conditions: substrate generated in situ from GTP by E. coli RibA; with and without PEP.
Assay [2] addresses ALFA-tagged RibD (RibD-ALFA), F. novicida (Francisella novicida). As to the kind of experiment: pull-down.

Experimental findings from publication PMC12742849 (Protein & Cell, 2025) are described below.

As a reminder, the stoichiometry N is the number of molecules, sites or subunits per partner or assembly.

GST-tagged Francisella RibD, sequence (A0Q460 1-355): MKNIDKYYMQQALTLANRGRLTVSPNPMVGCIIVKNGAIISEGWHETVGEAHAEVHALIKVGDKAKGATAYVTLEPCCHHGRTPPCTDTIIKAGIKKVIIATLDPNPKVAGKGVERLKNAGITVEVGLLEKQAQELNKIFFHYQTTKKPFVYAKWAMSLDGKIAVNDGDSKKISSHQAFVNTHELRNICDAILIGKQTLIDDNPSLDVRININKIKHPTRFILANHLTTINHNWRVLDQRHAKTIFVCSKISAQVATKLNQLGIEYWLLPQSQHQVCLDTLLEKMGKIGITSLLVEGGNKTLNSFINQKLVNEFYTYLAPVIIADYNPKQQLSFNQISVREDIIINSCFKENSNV

For `Nc1nc(N[C@@H]2O[C@H](COP(=O)(O)O)[C@@H](O)[C@H]2O)c(N)c(=O)[nH]1` [2,5-diamino-6-ribosyl-amino-4(3H) pyrimidinedione 5′-phosphate], in assay [1], the “fluorescence of the RibD reaction product (ex 408 nm, em 485 nm)” value was “Results showed similar activity for both, with PEP having the same effect on each”.
As to “FLAG-tagged enolase (enolase-FLAG), F. novicida (enzyme)”, the stoichiometry N in assay [2] stood at 1.
